Experimental findings from US6833456B2, “Indolyl-urea derivatives of thienopyridines useful as antiangiogenic agents, and methods for their use” (Agouron Pharmaceuticals, Inc., priority 2002, dated 2004) are described below.

In one data set the target is T1, PDGFRβ (Homo sapiens, UniProt P09619).
T1 construct: expressed in transfected cells; host or cells: porcine aorta endothelial (PAE) cells
Kind of data set: PAE-PDGFRβ phosphorylation in PAE-PDGFRB cells assay. The format is cell-based. Conditions: PAE cells overexpressing human PDGFRβ, PDGF-BB stimulated; read-out: PAE PDGFR autophos IC50. The protocol:
This assay determines the ability of a test compound to inhibit the autophosphorylation of PDGFRβ in porcine aorta endothelial (PAE)-PDGFRβ cells. PAE cells that overexpress human PDGFRβ were used in this assay. The cells were cultured in Ham's F12 media supplemented with 10% fetal bovine serum (FBS) and 400 ug/ml G418. Twenty thousands cells were seeded in each well of a 96-well plate in 50 μL of growth media and allowed to attach for 6 hours at 37° C. Cells were then exposed to the starvation media (Ham's F12 media supplemented with 0.1% FBS) for 16 hours. After the starvation period was over, 10 μL of test agent in 5% DMSO in starvation media were added to the test wells and 10 μL of the vehicle (5% DMSO in starvation media) were added into the control wells. The final DMSO concentration in each well was 0.5%. Plates were incubated at 37° C. for 1 hour and the cells were then stimulated with 1 μg/mL PDGF-BB (R & D System) in the presence of 2 mM Na3VO4 for 8 minutes. The cells were washed once with 1 mm Na3VO4 in HBSS and lysed by adding 50 μL per well of lysis buffer. One hundred μL of dilution buffer were then added to each well and the diluted cell lysate was transferred to a 96-well goat ant-rabbit coated plate (Pierce), which was pre-coated with Rabbit anti Human PDGFRβ antibody (Santa Cruz). The plates were incubated at room temperature for 2 hours and washed seven times with 1% Tween 20 in PBS. HRP-PY20 (Santa Cruz) was diluted and added to the plate for a 30-minute incubation. Plates were then washed again and TMB peroxidase substrate (Kirkegaard & Perry) was added for a 10-minute incubation. One hundred μL of 0.09 N H2SO4 was added into each well of the 96-well plate to stop the reaction. Phosphorylation status was assessed by spectrophotometer reading at 450 nm. IC50 values were calculated by curve fitting using a four-parameter analysis.

The subject of data set [1] is human umbilical vein endothelial cells (HUVEC). As to the kind of experiment: HUVEC+VEGF proliferation assay. The format is cell-based. The conditions noted are these: VEGF 6 ng/mL, MTT. The protocol: This assay determines the ability of a test compound to inhibit the growth factor-stimulated proliferation of human umbilical vein endothelial cells (“HUVEC”). HUVEC cells (passage 3-4, Clonetics, Corp.) were thawed into EGM2 culture medium (Clonetics Corp) in T75 flasks. Fresh EGM2 medium was added to the flasks 24 hours later. Four or five days later, cells were exposed to another culture medium (F12K medium supplemented with 10% fetal bovine serum (FBS), 60 μg/mL endothelial cell growth supplement (ECGS), and 0.1 mg/mL heparin). Exponentially-growing HUVEC cells were used in experiments thereafter. Ten to twelve thousand HUVEC cells were plated in 96-well dishes in 100 μl of rich, culture medium (described above). The cells were allowed to attach for 24 hours in this medium. The medium was then removed by aspiration and 105 μl of starvation media (F12K+1% FBS) was added to each well. After 24 hours, 15 μl of test agent dissolved in 1% DMSO in starvation medium or this vehicle alone was added into each treatment well; the final DMSO concentration was 0.1%. One hour later, 30 μl of VEGF (30 ng/mL) in starvation media was added to all wells except those containing untreated controls; the final VEGF concentration was 6 ng/mL. Cellular proliferation was quantified 72 hours later by MTT dye reduction, at which time cells were exposed for 4 hours MTT (Promega Corp.). Dye reduction was stopped by addition of a stop solution (Promega Corp.) and absorbance at 595 nm was determined on a 96-well spectrophotometer plate reader.

Data set [2] has as its target T2, unphosphorylated VEGF-R2Δ50 (FLVK) (Homo sapiens, UniProt P35968, DEL940-989/E990V).
T2 construct: VEGF-R2Δ50 contains residues 806-939 and 990-1171; made in house; host or cells: baculovirus/insect cell system
Kind of data set: VEGF-R2 coupled spectrophotometric assay, unphosphorylated construct (FLVK). Type of data set: biochemical. A digest of the protocol:
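Continuous coupled assay (PEP, PK, LDH; NADH loss at 340 nm) in 200 mM HEPES pH 7.5 with 3 mM ATP, 20 mM poly(E4Y1), 60 mM MgCl2 plus 2 mM MnCl2, started with 5-40 nM non-autophosphorylated VEGF-R2Δ50. Ki values from activity across compound concentrations, Morrison fit.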

The next data set can be described thus: Mouse PK assay. The format is in vivo, B6 female mice. The conditions noted are these: for AUC / Cmax: female, B6, mouse, plasma; for Mouse Cmin, po / AUC / Cmax: po; for Cmax: read-out: Mouse Cmax, po ng-h/mL. The protocol:
The pharmacokinetics (e.g., absorption and elimination) of drugs in mice were analyzed using the following experiment. Test compounds were formulated as a suspension in a 30:70 (PEG 400: acidified H2O) vehicle. This solution was administered orally (p.o.) and intraperitoneally (i.p.) at 50 mg/kg to two distinct groups (n=4) of B6 female mice. Blood samples were collected via an orbital bleed at time points: 0 hour (pre-dose), 0.5 hr, 1.0 hr, 2.0 hr, and 4.0 hr post dose. Plasma was obtained from each sample by centrifugation at 2500 rpm for 5 min. Test compound was extracted from the plasma by an organic protein precipitation method. For each time bleed, 50 μL of plasma was combined with 1.0 mL of acetonitrile, vortexed for 2 min. and then spun at 4000 rpm for 15 min. to precipitate the protein and extract out the test compound. Next, the acetonitrile supernatant (the extract containing test compound) was poured into new test tubes and evaporated on a hot plate (25° C.) under a steam of N2 gas. To each tube containing the dried test compound extract, 125 μL of mobile phase (60:40, 0.025 M NH4H2PO4+2.5 mL/L TEA:acetonitrile) was added. The test compound was resuspended in the mobile phase by vortexing and more protein was removed by centrifugation at 4000 rpm for 5 min. Each sample was poured into an HPLC vial for test compound analysis on an Hewlett Packard 1100 series HPLC with UV detection. From each sample, 95 μL was injected onto a Phenomenex-Prodigy reverse phase C-18, 150×3.2 mm column and eluted with a 45-50% acetonitrile gradient run over 10 min. Test-compound plasma concentrations (μg/mL) were determined by a comparison to standard curve (peak area vs. conc. μg/mL) using known concentrations of test compound extracted from plasma samples in the manner described above. Along with the standards and unknowns, three groups (n=4) of quality controls (0.25 μg/mL, 1.5 μg/mL, and 7.5 μg/mL) were run to insure the consistency of the analysis. […] The quantitated test samples were plotted for visual display using Kaleidagraph software and their pharmacokinetic parameters were determined using WIN NONLIN software.

T2 sequence (P35968 with tags, fused parts or gaps DEL940-989/E990V limits assumed): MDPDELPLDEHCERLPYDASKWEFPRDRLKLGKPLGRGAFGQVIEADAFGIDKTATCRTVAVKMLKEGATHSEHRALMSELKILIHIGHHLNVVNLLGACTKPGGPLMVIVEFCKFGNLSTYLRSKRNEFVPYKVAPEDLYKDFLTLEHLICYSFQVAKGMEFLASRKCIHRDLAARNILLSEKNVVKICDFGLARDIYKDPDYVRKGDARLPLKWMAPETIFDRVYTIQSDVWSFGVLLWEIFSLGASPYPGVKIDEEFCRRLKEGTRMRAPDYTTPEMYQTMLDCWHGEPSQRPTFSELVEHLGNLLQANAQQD
T1 sequence (P09619 33-1106): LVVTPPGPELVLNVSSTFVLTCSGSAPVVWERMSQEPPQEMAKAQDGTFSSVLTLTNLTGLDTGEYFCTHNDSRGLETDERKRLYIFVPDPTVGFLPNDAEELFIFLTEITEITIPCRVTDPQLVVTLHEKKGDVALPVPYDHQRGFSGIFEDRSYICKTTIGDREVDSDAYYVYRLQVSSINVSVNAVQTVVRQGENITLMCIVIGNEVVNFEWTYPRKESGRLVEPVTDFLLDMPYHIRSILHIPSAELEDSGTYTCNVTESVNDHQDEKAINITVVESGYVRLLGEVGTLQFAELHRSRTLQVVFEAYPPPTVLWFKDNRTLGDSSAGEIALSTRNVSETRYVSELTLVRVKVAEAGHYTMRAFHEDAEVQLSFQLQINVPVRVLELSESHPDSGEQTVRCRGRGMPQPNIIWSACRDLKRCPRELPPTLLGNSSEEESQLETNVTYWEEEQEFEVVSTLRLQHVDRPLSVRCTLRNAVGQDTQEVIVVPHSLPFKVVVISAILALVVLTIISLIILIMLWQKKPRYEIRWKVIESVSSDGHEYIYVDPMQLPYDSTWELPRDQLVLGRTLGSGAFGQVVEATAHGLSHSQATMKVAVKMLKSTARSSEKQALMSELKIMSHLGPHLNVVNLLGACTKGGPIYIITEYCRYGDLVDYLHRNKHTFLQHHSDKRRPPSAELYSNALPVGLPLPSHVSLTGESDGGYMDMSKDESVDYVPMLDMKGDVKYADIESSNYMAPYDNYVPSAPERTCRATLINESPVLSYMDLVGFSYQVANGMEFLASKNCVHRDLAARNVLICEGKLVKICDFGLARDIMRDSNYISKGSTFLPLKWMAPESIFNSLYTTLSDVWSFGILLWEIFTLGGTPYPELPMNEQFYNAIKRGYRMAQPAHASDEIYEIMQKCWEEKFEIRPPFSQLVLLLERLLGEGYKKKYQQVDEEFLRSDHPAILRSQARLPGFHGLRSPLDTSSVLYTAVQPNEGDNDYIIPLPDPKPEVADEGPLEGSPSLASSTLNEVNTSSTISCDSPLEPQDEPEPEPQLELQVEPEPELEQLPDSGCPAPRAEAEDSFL

A word on the IC50: it is the midpoint of a concentration-inhibition curve. As a reminder, the Ki is a measure of affinity in units of concentration, obtained from inhibition or displacement. Higher therefore signals weaker binding. As for `CO[C@H]1CCN(C(=O)c2cc3nccc(Nc4ccc5c(c4)cc(C)n5C(=O)NC4CC4)c3s2)C1` [Example 1f, 5-[2-(3S-Methoxy-pyrrolidine-1-carbonyl)-thieno[3,2-b]pyridin-7-ylamino]-2-methyl-indole-1-carboxylic acid cyclopropylamide], the IC50 at PDGFRβ stood at 175 nM; in data set [1] (72 hours), 0.68 nM. Also, affinity in data set [2] was put at a Ki of 0.21 nM. The “FLVK (% @ 50 (nM))” value in data set [2] (percent inhibition at 50 nM) came out at 97%. Besides, the “Mouse PK AUC, po ng-h/mL” value in “Mouse PK assay” (p.o., 50 mg/kg) is 1837 ng·h/mL. Further, the “Mouse Cmin, po” value in the data set “Mouse PK assay” was 4 ng/mL.

As usually defined, the inhibition is the share of the control response that was lost under treatment. Read a high inhibition as a response far below the control. Broadly, the AUC is concentration integrated over time. Low values mean low exposure, high ones high exposure. Consider `Cc1cc2cc(Nc3ccnc4cc(C(=O)N5CC[C@@H](O)C5)sc34)ccc2n1C(=O)NC1CC1` [Example 1q, 5-[2-(3R-Hydroxy-pyrrolidine-1-carbonyl)-thieno[3,2-b]pyridin-7-ylamino]-2-methyl-indole-1-carboxylic acid cyclopropylamide], for which the IC50 is above 1000 nM on PDGFRβ and 0.481 nM in data set [1] (Homo sapiens, HUVEC, 72 h). In addition, the Ki in data set [2] was 0.17 nM. The same molecule yielded an inhibition at 0.05 µM in data set [2] (percent inhibition at 50 nM) of 99%. Besides, in the data set “Mouse PK assay” (50 mg/kg), the AUC worked out at 6 ng·h/mL. In addition, the Cmax in the data set “Mouse PK assay” (50 mg/kg, p.o., 50 mg/kg) turned out to be 5 ng/mL. Also, the “Mouse Cmin, po” value in the data set “Mouse PK assay” is 0 ng/mL.

Consider `C#CCNC(=O)n1c(C)cc2c(F)c(Oc3ccnc4cc(C(=O)N5CCC[C@H]5COC)sc34)ccc21` [Example 5c, 4-Fluoro-5-[2-(2S-methoxymethyl-pyrrolidine-1-carbonyl)-thieno[3,2-b]pyridin-7-yloxy]-2-methyl-indole-1-carboxylic acid prop-2-ynylamide], for which the IC50 at PDGFRβ was 7.7 nM; in data set [1] (Homo sapiens, HUVEC, 72 h), 0.115 nM. The Ki in data set [2] was 0.605 nM. In addition, the inhibition at 0.05 µM in data set [2] (percent inhibition at 50 nM) was 99%. For the same molecule, the AUC in “Mouse PK assay” (50 mg/kg) was 36200 ng·h/mL. Further, the Cmax in “Mouse PK assay” (50 mg/kg, p.o., 50 mg/kg) was found to be 19700 ng/mL.

Regarding `C#CCNC(=O)n1c(C)cc2c(F)c(Oc3ccnc4cc(C(=O)N5CC[C@H](OC)C5)sc34)ccc21` [Example 5g, 4-Fluoro-5-[2-(3S-methoxy-pyrrolidine-1-carbonyl)-thieno[3,2-b]pyridin-7-yloxy]-2-methyl-indole-1-carboxylic acid prop-2-ynylamide], the concentration for half-maximal inhibition (IC50) amounted to 11.2 nM at PDGFRβ and 0.15 nM in data set [1] (Homo sapiens, HUVEC, 72 h). The molecule also registered a Ki in data set [2] of 0.45 nM. For the same molecule, the inhibition at 0.05 µM in data set [2] (percent inhibition at 50 nM) was found to be 99%. In “Mouse PK assay” (50 mg/kg), this molecule had an AUC of 1170 ng·h/mL. Further, the Cmax in the data set “Mouse PK assay” (50 mg/kg, p.o., 50 mg/kg) was 321 ng/mL. The “Mouse Cmin, po” value in “Mouse PK assay” was 65 ng/mL.

For the molecule `CCCNC(=O)n1c(C)cc2cc(Oc3ccnc4cc(C(=O)N5CC[C@@H](N(C)C)C5)sc34)ccc21` [Example 8h, 5-[(2-{[(3R)-3-(Dimethylamino)pyrrolidin-1-yl]carbonyl}thieno[3,2-b]pyridin-7-yl)oxy]-2-methyl-N-propyl-1H-indole-1-carboxamide], the IC50 stood at 19 nM on PDGFRβ and 0.16 nM in data set [1] (Homo sapiens, HUVEC, 72 h). This molecule also registered a Ki in data set [2] of 0.301 nM. Further, the inhibition at 0.05 µM in data set [2] (percent inhibition at 50 nM) came out at 99%. The AUC in “Mouse PK assay” (50 mg/kg) came out at 2390 ng·h/mL. The Cmax in “Mouse PK assay” (50 mg/kg, p.o., 50 mg/kg) came out at 920 ng/mL. The “Mouse Cmin, po” value in “Mouse PK assay” came to 204 ng/mL.

As to `CNC(=O)n1c(C)cc2cc(Oc3ccnc4cc(C(=O)N5CCC5)sc34)ccc21` [Example 8m, 5-[2-(Azetidine-1-carbonyl)-thieno[3,2-b]pyridin-7-yloxy]-2-methyl-indole-1-carboxylic acid methylamide], the IC50 at PDGFRβ is 4.5 nM; in data set [1] (Homo sapiens, HUVEC, 72 h), 0.084 nM. In data set [2], the affinity corresponds to a Ki of 0.004 nM. In addition, the inhibition at 0.05 µM in data set [2] (percent inhibition at 50 nM) amounted to 99%.

As for `CO[C@H]1CCN(C(=O)c2cc3nccc(Oc4ccc5c(c4)cc(C)n5C(=O)NCC#N)c3s2)C1` [Example 9f, 5-[2-(3S-Methoxy-pyrrolidine-1-carbonyl)-thieno[3,2-b]pyridin-7-yloxy]-2-methyl-indole-1-carboxylic acid cyanomethyl-amide], the IC50 on PDGFRβ worked out at 13 nM; in data set [1] (Homo sapiens, HUVEC, 72 h), 0.68 nM. The molecule further registered a Ki in data set [2] of 0.667 nM. For the same molecule, in data set [2] (percent inhibition at 50 nM), the inhibition at 0.05 µM is 84%.

Take `CCNC(=O)n1c(C)cc2cc(Oc3ccnc4cc(C(=O)N5CC[C@H](O)C5)sc34)ccc21` [Example 9h, 5-[2-(3S-Hydroxy-pyrrolidine-1-carbonyl)-thieno[3,2-b]pyridin-7-yloxy]-2-methyl-indole-1-carboxylic acid ethylamide]: the IC50 at PDGFRβ worked out at 31 nM; in data set [1] (Homo sapiens, HUVEC, 72 h), 0.9 nM. Also, in data set [2], the affinity corresponds to a Ki of 0.258 nM. The molecule further came in with an inhibition at 0.05 µM in data set [2] (percent inhibition at 50 nM) of 99%.
